In patent publication US5187157A, “Peptide boronic acid inhibitors of trypsin-like proteases” (Du Pont Merck Pharmaceutical Company, priority 1988, dated 1993):

What was measured:
normal human plasma [1] = test: Activated partial thromboplastin times (APTT), blood coagulation in vitro; assay type: biochemical; details: for Calc. Concentration 2 × APTT: approximate concentration required to increase APTT two fold
Experimental: (§1) The effectiveness of inhibitors in reactions in which they compete with natural substrates for target enzymes is measured in vitro in blood coagulation assays. Two different assays are used, the APTT (activated partial thromboplastin times) and PT (prothrombin times) assays. These assays mimic the blood clotting process in vivo. Blood coagulation occurs through either of two pathways, each consisting of a cascades of zymogen activation steps. The pathways are termed the intrinsic and the extrinsic pathways (see L. Lorand, Methods in Enzymology 45: 31-37 (1976). The intrinsic pathway is initiated by negatively charged surfaces in which plasma kallikrein, factor XII and factor […] are activated and then factors IX and X and prothrombin are activated in calcium dependent steps. Thrombin, the last protease in the cascade, hydrolyses fibrinogen to fibrin which results in clot formation. In the APTT assay, plasma components are activated by exposure to negatively charged surfaces and then clotting times are measured after calcium is added to the system. In the extrinsic pathway, tissue thromboplastin activates factor VII which then activates factor X leading to the activation of thrombin. These events are measured in the prothrombin times assay.
The effect of protease inhibitors on blood coagulation in vitro was determined by measuring their effects on two different clinical parameters, the activated partial thromboplastin times (APTT) and prothrombin times (PT). Reagents for each of these assays were supplied by General Diagnostics, Jessup MD. Stock solutions of inhibitors were prepared in […] HEPES buffer, pH 7.5, containing 0.10 M sodium chloride. For the APTT assay, the inhibitor solution (0.100 mL) was incubated with normal human plasma (0.100 mL) and automated APTT reagent (0.100 mL). After incubation for 5.0 min at 37°, calcium chloride (0.100 mL) was added and the clotting times, measured in seconds, was determined on a fibrameter. The effects of the varying concentrations of inhibitor on blood clotting times compared with the clotting times of controls run in the absence of inhibitor, are shown in Table 3.

Sprague Dawley CD Rats = test: In Vivo Inhibition of Croton Oil Induced Inflammation (ear swelling); details: for Mean Swelling (mg ± SE): right minus left ear weight
Experimental: Two solutions were prepared, the first consisting of 5% croton oil, a known inflammatory agent, in an acetone carrier (Croton Solution) and the second consisting of 5% croton oil in an acetone carrier to which 10 mg/mL of a compound of the invention was added (Compound Solution). The Croton Solution (10 μL), or alternatively the Compound Solution (10 μL), was applied to the right ear of each animal (Sprague Dawley CD Rats, 130-140 g, supplied by Charles River Labs, Inc., Wilmington, MA). […] "SE" denotes standard error.

Human plasma kallikrein = target: T1, Human plasma kallikrein (Homo sapiens, UniProt P03952); test: Inhibition of Human Plasma Kallikrein; assay type: biochemical; details: activity remaining 10 to 20 min after initiation
T1 construct: purchased Protogen AG (Switzerland)
Experimental: (§2) In the Examples which follow, the hydrolytic activity of each enzyme is measured in both the presence and absence of inhibitor and the percent enzyme activity determined. […] A steady state is reached fairly rapidly and nears completion within 5 min. Activity is evaluated between 10-20 min after the components are mixed to insure that reaction components are at equilibrium. The lowest concentration of inhibitor tested is determined by the estimated concentration of enzyme. […] The maintenance of pseudo-first-order reaction conditions and the sensitivity of the respective assays sets the lowest limit level of inhibitor tested at 10 nM for kallikrein inhibitors and 5 nM for thrombin inhibitors.
Human plasma kallikrein was obtained from Protogen AG (Switzerland). The specific activity as described by the supplier is 15 units per mg. A unit is defined as the quantity of enzyme required to hydrolyze 1 μmole of substrate, H-(D)Pro-Phe-Arg-p-nitroanilide (Kabi S2302), per min at a substrate concentration of 0.50 mM at 25° in 50 mM potassium phosphate buffer, pH 8.0.

Human thrombin = target: T2, Human thrombin (Homo sapiens, UniProt P00734); test: Inhibition of Thrombin (Esterase Activity); assay type: biochemical; details: activity remaining 10 to 20 min after initiation
T2 construct: purchased R.Q.P. Laboratories, South Bend, IN Lot HT102
Experimental: as §2
A stock solution of thrombin was prepared in 0.010M PIPES Buffer, pH 6.0, containing 0.75 M sodium chloride. […] The initial concentration of substrate was 0.10 mM and the concentration of thrombin was 1.0 nM (based on weight).

normal human plasma [2] = test: Prothrombin times (PT), blood coagulation in vitro; assay type: biochemical; details: for Calc. Concentration 2 × XPT: approximate concentration required to increase PT two fold
Experimental: as §1
For PT assays, inhibitor solutions (0.100 mL) were incubated with normal human plasma (0.100 mL) for 2 min at 37°.

[3] = Stability of Inhibitors in Human Plasma As Measured By APTT; assay type: in vitro ADME; details: 250 nM in APTT assay
Experimental: The stability of inhibitors in plasma was determined by their ability to inhibit blood coagulation. First, a stock solutions (1.0 μM) of the inhibitors to be tested in 25 mM HEPES buffer, pH 7.5, containing 0.10 M sodium chloride were diluted 50% with normal human plasma. The mixtures were made at 0°, then aliquots (0.200 mL) were removed and incubated for 2 min at 37°. An equal volume of automated APTT reagent was added and clotting times were measured as described in Examples 111-117. The final concentration of inhibitor during the clotting assays was 250 nM. Values for compounds E and F were determined simultaneously with the Control. Values for compounds A, B and C were obtained on a different day.

[4] = 100 μg/ear with 5% croton oil, topical, 1 h
[5] = Table 13, 100 μg/ear with 5% croton oil, topical, 1 h
[6] = incubation in human plasma 0.5 h
[7] = incubation in human plasma 24 h
[8] = incubation in human plasma 48 h
[9] = Table 14, dose=100 μg, essentially the same conditions

T1 sequence (P03952 391-638 limits assumed): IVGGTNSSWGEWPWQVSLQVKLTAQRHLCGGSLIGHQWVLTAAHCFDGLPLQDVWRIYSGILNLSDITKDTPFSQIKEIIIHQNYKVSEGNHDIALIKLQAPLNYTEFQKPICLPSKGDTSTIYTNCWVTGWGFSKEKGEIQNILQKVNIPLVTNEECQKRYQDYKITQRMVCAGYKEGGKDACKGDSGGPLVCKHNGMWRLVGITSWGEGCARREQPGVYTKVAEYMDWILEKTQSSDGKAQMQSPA
T1 sequence (P03952 20-390 partner limits assumed): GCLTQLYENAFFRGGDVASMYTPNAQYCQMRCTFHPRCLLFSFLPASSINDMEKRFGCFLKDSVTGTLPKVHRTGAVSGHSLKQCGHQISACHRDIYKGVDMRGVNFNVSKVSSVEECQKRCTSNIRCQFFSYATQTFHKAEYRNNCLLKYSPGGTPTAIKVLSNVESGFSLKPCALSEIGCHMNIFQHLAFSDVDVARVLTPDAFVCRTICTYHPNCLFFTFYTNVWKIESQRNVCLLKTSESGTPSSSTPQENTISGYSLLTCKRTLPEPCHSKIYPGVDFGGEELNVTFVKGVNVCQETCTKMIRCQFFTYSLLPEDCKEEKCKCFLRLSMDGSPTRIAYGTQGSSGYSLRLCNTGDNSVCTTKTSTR

| Compound | Calc. Concentration 2 × APTT (normal human plasma [1]) | Activated Partial Thromboplastin Times (normal human plasma [1]; inhibitor 50 nM) | Activated Partial Thromboplastin Times (normal human plasma [1]; inhibitor 125 nM) | Activated Partial Thromboplastin Times (normal human plasma [1]; inhibitor 200 nM) | Activated Partial Thromboplastin Times (normal human plasma [1]; inhibitor 275 nM) | Activated Partial Thromboplastin Times (normal human plasma [1]; inhibitor 350 nM) | Activated Partial Thromboplastin Times (normal human plasma [1]; inhibitor 550 nM) | Percent Activity (Human plasma kallikrein; inhibitor 10 nM) | Percent Activity (Human thrombin; inhibitor 1000 nM) | Calc. Concentration 2 × XPT (normal human plasma [2]) | Prothrombin Times (normal human plasma [2]; inhibitor 1000 nM) | Prothrombin Times (normal human plasma [2]; inhibitor 2000 nM) | Prothrombin Times (normal human plasma [2]; inhibitor 4000 nM) | Percent Inhibition (Sprague Dawley CD Rats; [9]) | Prothrombin Times (normal human plasma [2]; inhibitor 500 nM) | Prothrombin Times (normal human plasma [2]; inhibitor 750 nM) | also measured |
| --- | --- | --- | --- | --- | --- | --- | --- | --- | --- | --- | --- | --- | --- | --- | --- | --- | --- |
| CC(=O)NC(Cc1ccccc1)C(=O)NC(CCCNC(=N)N)B1OC2CC3CC(C3(C)C)C2(C)O1.Cl (stereo not drawn) [Compound F, Ac-Phe-boroArg-C10 H16.HCl] | 325 nM | 35 s | 35.2 s | 36.7 s | 44.8 s | 58.2 s | 144.2 s | 48% | 53% | 2500 nM | 16.2 s | 20.8 s | 51.5 s | – | – | – | Mean Right ear Wt. (Sprague Dawley CD Rats; [4]): 18.9 mg; Mean Swelling (mg ± SE) (Sprague Dawley CD Rats; [4]): 2.3 ± 0.7 mg; Percent Inhibition (Sprague Dawley CD Rats; [5]): 79%; Clotting Time ([3]; incubation in human plasma 0 h): 76.3 s; Clotting Time [3, 6]: 76.4 s; Clotting Time ([3]; incubation in human plasma 1 h): 76.7 s; Clotting Time ([3]; incubation in human plasma 2 h): 79.6 s; Clotting Time ([3]; incubation in human plasma 3 h): 77.8 s; Clotting Time ([3]; incubation in human plasma 4 h): 81.8 s; Clotting Time ([3]; incubation in human plasma 5 h): 80.8 s; Clotting Time ([3]; incubation in human plasma 6 h): 79.3 s; Clotting Time [3, 7]: 73.9 s; Clotting Time [3, 8]: 49.3 s |
| CC(C)(C)OC(=O)N[C@H](Cc1ccccc1)C(=O)N[C@@H](Cc1ccccc1)C(=O)N[C@@H](CCCNC(=N)N)B1OC2CC3CC(C3(C)C)C2(C)O1.O=S(=O)(O)c1ccccc1 (stereo partly drawn) [E, Boc-(D)Phe-Phe-boroArg-C10 H16.benzene sulfonic acid] | 375 nM | 36.8 s | 40.5 s | 43.6 s | 52.8 s | 54.8 s | 61.3 s | 5.2% | – | 2600 nM | 29.3 s | 39 s | 70.8 s | 82% | 19.8 s | 22 s | Percent Activity (Human thrombin; inhibitor 10 nM): 32%; Clotting Time ([3]; incubation in human plasma 0 h): 63.2 s; Clotting Time [3, 6]: 73.2 s; Clotting Time ([3]; incubation in human plasma 1 h): 66.2 s; Clotting Time ([3]; incubation in human plasma 2 h): 67.7 s; Clotting Time ([3]; incubation in human plasma 3 h): 61.7 s; Clotting Time ([3]; incubation in human plasma 4 h): 58.2 s; Clotting Time ([3]; incubation in human plasma 5 h): 61.3 s; Clotting Time ([3]; incubation in human plasma 6 h): 57.3 s; Clotting Time [3, 7]: 64.7 s; Clotting Time [3, 8]: 58.7 s |
| Br.CC(C)(C)OC(=O)NC(Cc1ccccc1)C(=O)NC(Cc1ccccc1)C(=O)NC(CCCSC(=N)N)B1OC2CC3CC(C3(C)C)C2(C)O1 (stereo not drawn) [Compound D, Boc-(D)Phe-Phe-boroIrg-C10 H16.HBr] | 370 nM | 35.8 s | 45.2 s | 46.2 s | 60.7 s | 75.7 s | 94.8 s | 2% | – | 1200 nM | 19.9 s | 23.4 s | 49.2 s | 93% | 15.7 s | 17.2 s | Percent Activity (Human thrombin; inhibitor 5 nM): 48% |
| COc1ccc2c(c1)c(CC(=O)O)c(C)n2C(=O)c1ccc(Cl)cc1 [Indomethacin, indomethacin, reference compound] | – | – | – | – | – | – | – | – | – | – | – | – | – | – | – | – | Mean Right ear Wt. (Sprague Dawley CD Rats; [4]): 20.6 mg; Mean Swelling (mg ± SE) (Sprague Dawley CD Rats; [4]): 5.0 ± 2.8 mg; Percent Inhibition (Sprague Dawley CD Rats; [5]): 55% |
| Br.CC(=O)NC(Cc1ccccc1)C(=O)NC(CCCSC(=N)N)B1OC2CC3CC(C3(C)C)C2(C)O1 (stereo not drawn) [G, Ac-Phe-boroIrg-C10 H16.HBr] | 625 nM | 35.2 s | 36.2 s | 39.3 s | 58.2 s | 66.7 s | 98.4 s | – | 64% | 1200 nM | 19.7 s | 43.6 s | – | 69% | 13.7 s | 14.9 s | Percent Activity (Human plasma kallikrein; inhibitor 50 nM): 17% |
| Cl.NC(N)=NCCC[C@H](NC(=O)[C@H](Cc1ccccc1)NC(=O)[C@@H]1CCCN1C(=O)c1ccccc1)B(O)O [Bz--Pro--Phe--boroArg--OH.HCl, Bz-Pro-Phe-boroArg-OH.HCl] | – | – | – | – | – | – | – | 16% | 18% | – | – | – | – | – | – | – | – |
| CC1(C)C2CC3OB(C(CCCNC(=N)N)NC(=O)C(Cc4ccccc4)NC(=O)C4CCCN4C(=O)c4ccccc4)OC3(C)C1C2.O=S(=O)(O)c1ccccc1 (stereo not drawn) [Bz--Pro--Phe--boroArg--C10 H16.BSA, Bz-Pro-Phe-boroArg-C10 H16.benzene sulfonic acid] | – | – | – | – | – | – | – | 15% | 24% | – | – | – | – | – | – | – | – |
